Reference: ChEMBL document CHEMBL1201862, “PubChem BioAssay data set” (2004)
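Five compound concentrations were applied to cells in 96-well plates for 48 hours; endpoints were derived by simple linear interpolation of the resulting dose-response curve. GI50 is the concentration that inhibits growth by half.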 Calls of active or inactive are those of the source. Cut-off read from the data, not from the text of the source: active = GI50 up to about 1.1 µM and inactive = higher.

How the values were obtained:
Assay in all cases: inhibition of tumour cell growth, NCI panel, 48 h
HOP-18 = system: HOP-18
DMS-114 = system: DMS-114
M19-MEL = system: M19-MEL
DMS-273 = system: DMS-273
DLD-1 = system: DLD-1
XF498 = system: XF498
KM-20L2 = system: KM-20L2
RXF 631 = system: RXF 631
SNB-78 = system: SNB-78

Structure (SMILES) | GI50 (HOP-18) | GI50 (DMS-114) | GI50 (M19-MEL) | GI50 (DMS-273) | GI50 (DLD-1) | GI50 (XF498) | GI50 (KM-20L2) | GI50 (RXF 631) | GI50 (SNB-78)
CCOC1=C2N=C(Cc3ccccc3F)N=C2C(=O)c2ccccc21 | > 100 µM (inactive) | > 100 µM (inactive) | > 100 µM (inactive) | > 100 µM (inactive) | > 100 µM (inactive) | > 100 µM (inactive) | > 100 µM (inactive) | – | –
N#C/C(=C\c1cc(O)ccc1O)C(N)=O | – | 24.8 µM (inactive) | 51.3 µM (inactive) | 47.3 µM (inactive) | 70.6 µM (inactive) | 65.3 µM (inactive) | 46.8 µM (inactive) | 58.1 µM (inactive) | 25.6 µM (inactive)
CCc1ccc(Cc2ccc(CC)c(NC(=O)C(=O)Cc3nc4ccccc4nc3C)c2CC)c(CC)c1NC(=O)C(=O)Cc1nc2ccccc2nc1C | – | 47.5 µM (inactive) | > 100 µM (inactive) | – | > 100 µM (inactive) | – | > 100 µM (inactive) | 84.9 µM (inactive) | 76.2 µM (inactive)
COC12OCCN(C)C1=CC(=O)C1=NNC(C)C12 (stereo not given) | > 100 µM (inactive) | > 100 µM (inactive) | > 100 µM (inactive) | > 100 µM (inactive) | > 100 µM (inactive) | – | – | > 100 µM (inactive) | > 100 µM (inactive)
CCCCCCCCCCn1cccc1/C=C/c1ccc(/C=C/c2cccn2CCCCCCCCCC)cc1 | > 100 µM (inactive) | > 100 µM (inactive) | > 100 µM (inactive) | > 100 µM (inactive) | > 100 µM (inactive) | > 100 µM (inactive) | > 100 µM (inactive) | – | > 100 µM (inactive)
O=C(O)CCNCCCCNCCC(=O)O | > 100 µM (inactive) | – | – | > 100 µM (inactive) | > 100 µM (inactive) | > 100 µM (inactive) | > 100 µM (inactive) | – | –
CCOP(=O)(OCC)C(C(=O)OC)C(=O)C(=O)Nc1ccc(Cl)cc1Cl (stereo not given) | 24 µM (inactive) | > 100 µM (inactive) | > 100 µM (inactive) | > 100 µM (inactive) | > 100 µM (inactive) | 3.78 µM (inactive) | > 100 µM (inactive) | – | > 100 µM (inactive)
COC(=O)C1=C(C(=O)OC)C2(CCCCCC2=O)OC1=O (stereo not given) | – | > 100 µM (inactive) | > 100 µM (inactive) | > 100 µM (inactive) | – | > 100 µM (inactive) | > 100 µM (inactive) | > 100 µM (inactive) | > 100 µM (inactive)
O=C1CCC(c2nc3ccccc3o2)C(=O)N1 (stereo not given) | > 100 µM (inactive) | > 100 µM (inactive) | > 100 µM (inactive) | > 100 µM (inactive) | > 100 µM (inactive) | – | > 100 µM (inactive) | > 100 µM (inactive) | > 100 µM (inactive)
CCOC(=O)C(Cc1ccccc1)NC(=O)c1nc[nH]c1/N=N/N(C)C (stereo not given) | – | > 100 µM (inactive) | > 100 µM (inactive) | > 100 µM (inactive) | > 100 µM (inactive) | – | – | – | –
N#CC1(N2CCCC2)CCC2(CC1)OCCO2 | – | > 100 µM (inactive) | > 10 µM (inactive) | > 10 µM (inactive) | – | – | > 100 µM (inactive) | – | > 100 µM (inactive)
Cc1cc(C)nc(NS(=O)(=O)c2ccc(Nc3c4ccccc4nc4c(C(=O)Nc5ccc(S(=O)(=O)Nc6cc(C)on6)cc5)ccc(Cl)c34)cc2)n1 | – | – | 37.9 µM (inactive) | – | 17.2 µM (inactive) | 18.7 µM (inactive) | 19.5 µM (inactive) | 20.7 µM (inactive) | 29.2 µM (inactive)
CC1=Nn2c(nnc2-c2ccc(N)cc2)NC(C)(C)C1 | > 100 µM (inactive) | > 100 µM (inactive) | > 100 µM (inactive) | > 100 µM (inactive) | > 100 µM (inactive) | > 100 µM (inactive) | > 100 µM (inactive) | > 100 µM (inactive) | > 100 µM (inactive)
COc1ccc(C(=O)C=C2NCCN2)cc1 | > 100 µM (inactive) | > 100 µM (inactive) | > 100 µM (inactive) | > 100 µM (inactive) | > 100 µM (inactive) | – | > 100 µM (inactive) | – | > 100 µM (inactive)
CC(=O)OC1CC2C(C)(C)C(=O)C=C[C@]2(C)C2CCC3(C)C(=CCC3[C@H](CO)C[C@H](O)C(=O)C(C)(C)O)[C@]12C (stereo not given in full) | 54.1 µM (inactive) | 33.9 µM (inactive) | 35.8 µM (inactive) | 30.9 µM (inactive) | 14.9 µM (inactive) | – | 13.6 µM (inactive) | 30.5 µM (inactive) | 76.4 µM (inactive)
CC(=O)OCC1OC(OC2CC3C(C)(C)C(O)CC[C@]3(C)C3CCC45CC4(CC[C@H]5C(C)CC(O)C4OC4(C)C)[C@]23C)C(O)C(O)C1O (stereo not given in full) | 7.08 µM (inactive) | 5.21 µM (inactive) | 4.27 µM (inactive) | 8 µM (inactive) | 8.09 µM (inactive) | 4.13 µM (inactive) | 8.13 µM (inactive) | – | –
C=CCOC(C)n1c(C)c(Br)c(=O)[nH]c1=O (stereo not given) | – | > 100 µM (inactive) | > 100 µM (inactive) | > 100 µM (inactive) | > 100 µM (inactive) | > 100 µM (inactive) | > 100 µM (inactive) | – | –
CN(C)/N=N/c1c[nH]nc1C(N)=O | > 100 µM (inactive) | > 100 µM (inactive) | > 100 µM (inactive) | > 100 µM (inactive) | > 100 µM (inactive) | > 100 µM (inactive) | > 100 µM (inactive) | – | –
O=C(Nc1cc(Cl)c(Cl)cc1Cl)C(=O)C(C(=O)c1ccccc1)C1OC(=O)c2ccccc21 (stereo not given) | 38.3 µM (inactive) | > 100 µM (inactive) | > 100 µM (inactive) | > 100 µM (inactive) | > 100 µM (inactive) | > 100 µM (inactive) | > 100 µM (inactive) | > 100 µM (inactive) | > 100 µM (inactive)
O=C1c2ccccc2C(=O)C1C(c1ccc(F)cc1)C1C(=O)c2ccccc2C1=O | > 100 µM (inactive) | > 100 µM (inactive) | 61 µM (inactive) | > 100 µM (inactive) | > 100 µM (inactive) | > 100 µM (inactive) | > 100 µM (inactive) | > 100 µM (inactive) | > 100 µM (inactive)
COc1ccc(Nc2nc3cc(C(F)(F)F)ccc3nc2-c2ccccc2)cc1OC | < 0.01 µM (active) | 10.3 µM (inactive) | – | 6.08 µM (inactive) | 21.4 µM (inactive) | 1.71 µM (inactive) | – | – | 25.4 µM (inactive)
N#CC1(CCCCl)CCCCC1 | 72.9 µM (inactive) | > 100 µM (inactive) | > 100 µM (inactive) | > 100 µM (inactive) | > 100 µM (inactive) | > 100 µM (inactive) | > 100 µM (inactive) | > 100 µM (inactive) | > 100 µM (inactive)
Cc1ccc(NC(=O)NC(=O)c2ccc([N+](=O)[O-])cc2[N+](=O)[O-])cc1Oc1ncc(Cl)cn1 | 10.3 µM (inactive) | 0.484 µM (active) | 0.741 µM (active) | 0.318 µM (active) | 0.421 µM (active) | 0.843 µM (active) | 0.234 µM (active) | – | 0.346 µM (active)
Clc1ccc(C2SCc3nc4ccccc4n32)c(Cl)c1 (stereo not given) | 19.5 µM (inactive) | 8.3 µM (inactive) | 14.8 µM (inactive) | – | 15.7 µM (inactive) | 19.1 µM (inactive) | 21.4 µM (inactive) | – | –
